Laboratory results published in patent publication US7897349B2, “Macrophage migration inhibitory factor (MIF) as marker for urological inflammatory disease” (The United States of America as represented by the …, priority 2003, dated 2011).
Ends that are not written are not given here.

Legend:
prostate and bladder = tested on: prostate and bladder
From the text: In CPPS, prostatic inflammation is suspected to result in referred visceral pain and urodynamic changes. Therefore, we established a model of prostatitis that would allow the study of histological, molecular and physiological changes in the bladder and the prostate, in an effort to correlate it to visceral referred pain.

[1] = tested on: bladder, lumbosacral spinal cord, DRG and MPG; test: Intravesical bacterial endotoxin (LPS) model of bladder inflammation; type: in vivo, rat
From the text: Intravesical instillation of a bacterial endotoxin (lipopolysaccharide from E. Coli) has been documented to produce histological signs of bladder inflammation (Stein et al., J. Urol. 155: 1133-1138, 1996; Saban et al., Am. J Pathol. 160: 2095-2110, 2002; Wheeler et al., Eur. J Pharmacol. 417: 239-248, 2001). […] Therefore, we examined the effects of intravesical LPS on the levels of MIF and cox-2 on the bladder, lumbosacral spinal cord, DRG and MPG.

bladder and the prostate = test: Systemic substance P (SP) model of neurogenic inflammation in the bladder and prostate; type: in vivo, rat
From the text: We sought to determine if neurogenic inflammation alone (without producing damage or insult to the bladder epithelia, as was the case in the acid and LPS cystitis models) was also able to alter MIF levels in the bladder. In addition, we examined the prostate for signs of inflammation. Systemic injections of SP elicited plasma extravasation and edema (neurogenic inflammation) in the bladder and the prostate. We examined MIF and cox-2 to compare the results with our previous models of bladder injury (acid and LPS). In addition, we examined nerve growth factor (NGF) and the proto-oncogene c-fos.

bladder = test: Substance P induced changes in CD74, CD44, p-ERK1/2 and MIF in the rat bladder; type: in vivo; conditions: subcutaneous SP 40 μg/kg; one hour
Experimental: The materials and methods are identical to Meyer-Siegler et al. (Journal of Urology 173: February, 2005), the disclosure of which is incorporated herein by reference. In anesthetized rats, the bladder was isolated by cutting the ureters and urine was replaced by saline as intraluminal fluid ([…]). One hour after subcutaneous SP (40 μg/kg) or saline administration, the ILF and bladder were collected. Bladder tissue was analyzed for CD74 and CD44 by immunohistochemistry. Western blot analysis determined the relative amounts of bladder tissue MIF, CD74, CD44, and p-ERK1/2. ILF immunoprecipitation followed by Western blot analysis was performed to identify an association of MIF with CD74 and/or CD44

Compound: C=O [formalin]
- MIF protein level in the bladder (prostate and bladder; animals receiving formalin in the prostate): significantly reduced
- persistence of bladder hyperreflexia (prostate and bladder; chemical irritation of the prostate): at least 1 hour
- bladder intercontraction interval (prostate and bladder; formalin injected into the prostate, maximal in first ten minutes, persisted 60 min): significant decrease

Compound: lipopolysaccharide from E. Coli [LPS]
- histological changes of the bladder ([1]; intravesical LPS): marked histological changes indicative of cystitis
- MIF protein and mRNA in all the tissues, including the bladder ([1]; intravesical LPS treated rats): significant increases

Compound: Substance P (RPKPQQFFGLM-NH2; ends and bridges not checked; UniProt P20366 58-68, looked up) [SP, tachykinin; systemic injection used as model of neurogenic inflammation]
- cox-2 and c-fos levels in the bladder and the prostate (bladder and the prostate; SP group): significantly elevated
- MIF levels in the urine and serum (bladder and the prostate; SP treated animals with isolated bladders): significantly increased
- content of MIF in bladders and prostates (bladder and the prostate; SP treated compared to saline treated): marked decrease
- edema in the lamina propria of the bladder (Mean) (bladder and the prostate; SP treated rats compared to saline treated rats, p<0.05): 2.69±0.1
- NGF levels in the prostate and the urine (bladder and the prostate; SP treated rats, not elevated in the bladder): significantly elevated
- CD74 and CD44 bladder immunostaining (bladder): increased
- MIF release from the bladder (bladder): significant MIF release
- total bladder CD74 protein and mRNA, intracellular domain CD44, p-ERK1/2 and soluble CD44 in the ILF (bladder): increased
